This is an account of results in US12031897B2, “Target-locking single-molecule nanoscopy” (Memorial Sloan Kettering Cancer Center, priority 2019, dated 2024).

The test system of experiment [1] is Sox2 foci at the Pou5f1 locus. In words: Sox2 cluster signal at Pou5f1 upon inhibition (live-cell confocal/STED scans). In kind it is cell-based, mouse. As to conditions: Pou5f1. From the text: Contrary to Brd4, Med22 and Cdk9, Sox2 clustering persists through transcription inhibition by either JQ1 or FVP (FIG. 8D). The differential sensitivities between factors and modes of transcription inhibition unveil a hierarchy of molecular transactions that control Pou5f1 transcription: Sox2 binding occurs upstream of Cdk9/Med22/Brd4 recruitment and accumulation of all of 4 regulatory factors occurs upstream of Pol II release into productive elongation. […] For real-time confocal and STED imaging, example implementations may program the wave generator to scan 2 μm×2 μm or 1 μm×1 μm xy areas in 0.8 sec or 0.2 sec respectively. 3D scanning was performed (via, e.g., detection system 150) by acquiring 5 xy scans while moving the stage by 0.5 μm in z between scans. TTL pulses corresponding to single-photon events from the APDs, together with the trigger pulses from the wave generator were detected using a field-programmable gate array (FPGA) data acquisition system (National Instruments, PCIe-7852R). Before imaging, cells were seeded onto 8-chamber coverglass (LabTek, 155411) coated with 5 μg/ml laminin (BioLamina LN511), in -2i media (OMG) or +2i media (NMG) and appropriate drugs. For SiR staining, cells were labeled with media containing 0.3 μM SiR-BG for 10 mins, at 37° C., followed by three washes with new media. Targeted integration of SNAP-tag in the endogenous Sox2, Cdk9, Brd4 and Med22 genes. To generate OMG or NMG SNAP-Sox2 targeted cells, OMG-1 or NMG mESCs (1×106) were transfected with 10 μg SNAP-Sox2 donor vector and 0.6 μg […] vector. 10 days after transfection, the cells were trypsinized, labeled with 0.3 μM SiR-BG for 10 mins, rinsed three times with new media, followed by immediate fluorescence-activated cell sorting (FACS). All the SiR-positive cells were collected, expanded for 2 weeks, trypsinized, labeled with SiR-BG and sorted again. Almost 100% SNAP positive pools were obtained from the second round of sorting and individual clones were picked and expanded. Homozygous clones (dubbed “OMG SNAP-Sox2 clone 8” and NMG SNAP-Sox2 clone 3'' respectively) with both Sox2 alleles correctly targeted with SNAP-tag integrations and that show SiR nuclear staining were selected for all further experiments.

The test system of experiment [2] is Pou5f1 transcription site (MCP-mNeonGreen nascent RNA). The experiment in a line: MCP-mNeonGreen nascent transcription at the endogenous Pou5f1 locus in mESCs (live-cell imaging). It is filed as cell-based, mouse. How it is done: All the mESCs were cultured and maintained in +2i media with appropriate selection drugs on 0.1% gelatin-coated dishes, at 37° C. in a humidified 5% CO2 incubator. +2i media contain D-MEM (Thermo Fisher Scientific 10313021), 15% fetal bovine serum (Gemini Bio 100-500), 0.1 mM β-mercaptoethanol (Thermo Fisher Scientific 21985023), 2 mM L-alanyl-L-glutamine (Thermo Fisher Scientific 35050079), 1×MEM nonessential amino acids (Thermo Fisher Scientific 11140076), 1000 U/mL LIF (Millipore ESG1107), […] (Millipore 361559) and 1 μM PD0325901 (Axon Medichem 1408). OMG and NMG SNAP-Rpb1 cells were cultured with +2i media plus 3 μg/ml α-amanitin.
(§1) Before imaging, cells were seeded onto 8-chamber coverglass (LabTek, 155411) coated with 5 μg/ml laminin (BioLamina LN511), in −2i media (OMG) or +2i media (NMG) and appropriate drugs. For SiR staining, cells were labeled with media containing 0.3 μM SiR-BG for 10 mins, at 37° C., followed by three washes with new media.
Wide-Field Cell Imaging Experiments. Live cell imaging experiments (tdPCP-EGFP and MCP-mNeonGreen tracking). For time-lapse imaging, a z-stack of 11 frames at 1 frame/second was acquired, by stepping the sample along the z-axis using the nanopositioning stage (250 nm steps). The CCD data were analyzed using IDL 6.4 (ITTVIS). Maximum projection images were calculated for each stack, and the resulting 11 sec/frame movie was used to track the intensities of individual tdPCP-EGFP-tagged transcription sites. A particle tracking routine (Crocker and Grier, 1996) was used for finding the positions of the transcription site in each frame and linking them into a 2D trajectory. The intensity trace of tdPCP-EGFP at the transcription site was corrected for photo-bleaching using the time trace of tdPCP-EGFP in a nearby nuclear region. The auto-correlation function was calculated (for the tdPCP-EGFP fluctuation analysis), or the data were imported in Origin 8.5.0 (OriginLab) and the trace fitted to a single-exponential decay (for the transcription inhibition experiments).

The subject of experiment [3] is H3K27ac at the Pou5f1 locus. The experiment in a line: ChIP-qPCR analysis of H3K27ac after A-485 treatment. It is filed as cell-based, mouse. As to conditions: for H3K27ac characteristic decay time: 1 μM A-485. Here is the method: ChIP-qPCR analysis of H3K27ac after A-485 treatment. For H3K27ac and H3 ChIP-qPCR experiments, confluent 10 cm dishes (˜3×10^6 OMG SNAP-Sox2 cells) were treated with 1 μM A-485 (Structural Genomics Consortium) or 0.1% v/v DMSO for the indicated times. Fixation, cell lysis, sonicated chromatin preparation, immunoprecipitation and qPCR analysis were performed as described for OMG SNAP-Rpb1 cells in the previous section, with the exception that 5 μg H3K27ac antibody (Active Motif 39685) or 5 μg H3 antibody (Active Motif 39763) were used for each IP respectively.
(In general: Real-time PCR tracks product formation cycle by cycle.)

Experiment [4] deals with T1, Brd4 foci at the Pou5f1 locus (Mus musculus, UniProt Q9ESU6).
T1 construct: integrating a SNAP-tag at the N-terminus of the endogenous Brd4; endogenous in cells; host or cells: mouse ESCs OMG-1, homozygous SNAP-Brd4 knock-in clone 9 (printed as 'OMG SNAP-Cdk9 clone 9')
In words: Brd4 cluster signal at Pou5f1 upon inhibition (live-cell confocal/STED scans). In kind it is cell-based. As to conditions: Pou5f1. Here is the method:
For real-time confocal and STED imaging, example implementations may program the wave generator to scan 2 μm×2 μm or 1 μm×1 μm xy areas in 0.8 sec or 0.2 sec respectively. 3D scanning was performed (via, e.g., detection system 150) by acquiring 5 xy scans while moving the stage by 0.5 μm in z between scans. TTL pulses corresponding to single-photon events from the APDs, together with the trigger pulses from the wave generator were detected using a field-programmable gate array (FPGA) data acquisition system (National Instruments, PCIe-7852R).
as §1
To generate OMG or NMG SNAP-Brd4 targeted cells, OMG-1 or NMG mESCs (1×106) were transfected with 10 μg SNAP-Brd4 donor vector and 0.6 μg espCas9-gRNA-Brd4 vector. 10 days after transfection, the cells were trypsinized, labeled with SiR-BG and subjected to FACS, generating a first-round SiR-positive pool. This pool was then expanded, stained with SiR-BG and subjected to second FACS round and individual clones were picked and expanded.

Values joined by “and” are separate entries in the source; they are usually repeats but may differ in a detail not shown here. Equal entries are not always repeated.

Turning to `CNC(=O)Nc1ccc2c(c1)CC[C@@]21OC(=O)N(CC(=O)N(Cc2ccc(F)cc2)[C@@H](C)C(F)(F)F)C1=O` [A-485], the “Sox2 cluster size characteristic decay time” value in experiment [1] (upon A-485 inhibition) is given as 12.5 min. In experiment [1] (upon adding 1 μM A-485 (FIG. 8I legend)), the “Sox2 signal exponential fit τ” value was 12.5 ± 8.6 s. For the same compound, in experiment [2] (1 μM A-485), the “time until nascent Pou5f1 transcription shuts down” value was not above 20 min. In addition, in experiment [2] (Pou5f1, mESCs, 1 μM A-485, mean±S.D., n=17), the “MCP decay time upon p300/CBP HAT inhibition” value was 635 s and 635 ± 350 s. Moreover, the transcription shutdown time-scale in experiment [2] (Pou5f1, upon A-485 inhibition) was determined as 10.5 min. In addition, the “response of individual Pou5f1 transcription sites at intermediate inhibitor concentration” value in experiment [2] (intermediate [A-485] or [JQ1]) is reported as “all-or-none responses”. The “H3K27ac characteristic decay time” value in experiment [3] (primer pair 4) came to 7 ± 2 min; in experiment [3] (primer pair 5) it was 7 ± 4 min; in experiment [3] (primer pair 6) it was 5 ± 1 min; in experiment [3] (primer pair 7), 13 ± 4 min. Moreover, in experiment [3] (upon A-485 inhibition), the “H3K27ac loss kinetics” value is given as approximately 7 min. In experiment [4] (inhibition with 1 μM A-485 (FIG. 16J legend)), the “Brd4 signal exponential fit τ” value was determined as 8 ± 1 s. Besides, the “Brd4 cluster shrinking time” value in experiment [4] (upon A-485 inhibition) was 8 min.
